Results published in patent US10335409B2 (priority 2012, dated 2019).

Columns and labels:
Assay type in all cases: cell-based, hepatitis C virus
[1] = tested on: genotype 1a (H77) stable HCV replicon in Huh-7-derived cells; test: Stable subgenomic HCV replicon EC50, genotype 1a (Renilla luciferase); conditions: Hepatitis C virus, stable replicon genotype 1a, 72 h, read-out: EC50 1A RLUC
Method in brief: (§1)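 Compounds, three-fold diluted, were applied to Huh-7-derived cells harbouring luciferase replicons (genotype 1a H77, 1b Con1, 2a JFH-1, 4a ED43, with strain-specific adaptive mutations). Seventy-two hours later, intracellular replication was gauged by Renilla luciferase activity and EC50 derived by regression.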

[2] = tested on: genotype 1b (Con1) stable HCV replicon in Huh-7-derived cells; test: Stable subgenomic HCV replicon EC50, genotype 1b (Renilla luciferase); conditions: Hepatitis C virus, stable replicon genotype 1b, 72 h, read-out: EC50 1B RLUC
Method in brief: as §1

[3] = tested on: genotype 2a (JFH-1) stable HCV replicon in Huh-7-derived cells; test: Stable subgenomic HCV replicon EC50, genotype 2a (Renilla luciferase); conditions: Hepatitis C virus, stable replicon genotype 2a, 72 h, read-out: EC50 2A RLUC
Method in brief: as §1

[4] = tested on: genotype 3a (S52) stable HCV replicon in Huh-7-derived cells; test: Stable subgenomic HCV replicon EC50, genotype 3a (Renilla luciferase); conditions: Hepatitis C virus, 72 h, read-out: EC50 3A RLUC
[5] = tested on: genotype 4a (ED43) stable HCV replicon in Huh-7-derived cells; test: Stable subgenomic HCV replicon EC50, genotype 4a (Renilla luciferase); conditions: Hepatitis C virus, 72 h, read-out: EC50 4A RLUC
Method in brief: as §1

[6] = tested on: genotype 3a (S52) wild type transient HCV replicon in Huh-7-derived cells; test: Transient-transfected HCV replicon EC50, genotype 3a wild type; conditions: Hepatitis C virus; transient-transfected replicon genotype 3a wild type, 72 h; read-out: EC50 3A WT
[7] = tested on: genotype 1a (H77) wild type transient HCV replicon in Huh-7-derived cells; test: Transient-transfected HCV replicon EC50, genotype 1a wild type; conditions: Hepatitis C virus, 72 h, transient-transfected replicon genotype 1a wild type, read-out: EC50 1A WT
[8] = tested on: genotype 1a NS3/4a protease inhibitor resistant variant R155K transient HCV replicon in Huh-7-derived cells; test: Transient-transfected HCV replicon EC50, genotype 1a R155K; conditions: Hepatitis C virus, 72 h, read-out: EC50 1A R155K, transient-transfected replicon genotype 1a R155K resistant variant, 72 h
[9] = tested on: genotype 1b (Con1) wild type transient HCV replicon in Huh-7-derived cells; test: Transient-transfected HCV replicon EC50, genotype 1b wild type; conditions: Hepatitis C virus, 72 h, transient-transfected replicon genotype 1b wild type, read-out: EC50 1B WT
[10] = tested on: genotype 1b NS3/4a protease inhibitor resistant variant D168A transient HCV replicon in Huh-7-derived cells; test: Transient-transfected HCV replicon EC50, genotype 1b D168A; conditions: Hepatitis C virus, 72 h, read-out: EC50 1B D168A, transient-transfected replicon genotype 1b D168A resistant variant, 72 h

With `CC[C@@H]1[C@@H]2CN(C(=O)[C@H](C(C)(C)C)NC(=O)O[C@@H]3C[C@H]3CCCCCc3nc4ccc(OC)cc4nc3O2)[C@@H]1C(=O)N[C@]1(C(=O)NS(=O)(=O)C2(Cl)CC2)C[C@H]1C(F)F` [Example 75, (1aR,5S,8S,9S,10R,22aR)-5-tert-butyl-N-[(1R,2R)-1-{[(1-chlorocyclopropyl)sulfonyl]carbamoyl}-2-(difluoromethyl)cyclopropyl]-9-ethyl-14-methoxy-3,6-dioxo-1,1a,3,4,5,6,9,10,18,19,20,21,22,22a-tetradecahydro-8H-7,10-methanocyclopropa[18,19][1,10,3,6]dioxadiazacyclononadecino[11,12-b]quinoxaline-8-carboxamide] the EC50 [1] was 9.9 nM, the EC50 [2] was 6.4 nM and the EC50 [3] was 18 nM. The EC50 [4] was 240 nM, the EC50 [5] was 10 nM and the EC50 [6] was 56 nM. It also gave an EC50 [7] of 14 nM, an EC50 [8] of 45 nM and an EC50 [9] of 3.5 nM. For the same compound, the EC50 [10] was 51 nM.

In the case of `COc1ccc2nc3c(nc2c1)O[C@H]1CN(C(=O)[C@H](C(C)(C)C)NC(=O)O[C@@]2(C)C[C@@H]2CCCCC3(F)F)[C@H](C(=O)N[C@]2(C(=O)NS(=O)(=O)C3(C)CC3)C[C@H]2C(F)F)[C@@H]1C` [Example 77, (1 aS,5S,8S,9S,10R,22aS)-5-tert-butyl-N-[(1R,2R)-2-(difluoromethyl)-1-{[(1-methylcyclopropyl)sulfonyl]carbamoyl}cyclopropyl]-18,18-difluoro-14-methoxy-1a,9-dimethyl-3,6-dioxo-1,1a,3,4,5,6,9,10,18,19,20,21,22,22a-tetradecahydro-8H-7,10-methanocyclopropa[18,19][1,10,3,6]dioxadiazacyclononadecino[11,12-b]quinoxaline-8-carboxamide], the EC50 [1] is reported as 23 nM, the EC50 [2] is reported as 12 nM and the EC50 [3] is reported as 29 nM. It also gave an EC50 [4] of 741 nM, an EC50 [5] of 16 nM and an EC50 [6] of 472 nM. It also gave an EC50 [7] of 21 nM, an EC50 [8] of 34 nM and an EC50 [9] of 5 nM. It also gave an EC50 [10] of 80 nM.

`COc1ccc2nc3c(nc2c1)O[C@H]1CN(C(=O)[C@H](C(C)(C)C)NC(=O)O[C@@H]2C[C@@H]4C[C@@H]4[C@H]2CCCCC3(F)F)[C@H](C(=O)N[C@]2(C(=O)NS(=O)(=O)C3(C)CC3)C[C@H]2C(F)F)[C@@H]1C` [Example 81, (1aS,2aR,6S,9S,10S,11R,23aR,23bS)-6-tert-butyl-N-[(1R,2R)-2-(difluoromethyl)-1-{[(1-methylcyclopropyl)sulfonyl]carbamoyl}cyclopropyl]-19,19-difluoro-15-methoxy-10-methyl-4,7-dioxo-1a,2,2a,4,5,6,7,10,11,19,20,21,22,23,23a,23b-hexadecahydro-1H,9H-8,11-methanocyclopropa[4′,5′]cyclopenta[1′,2′:18,19][1,10,3,6]dioxadiazacyclononadecino[11,12-b]quinoxaline-9-carboxamide] was tested, and the EC50 [1] was 4 nM, the EC50 [2] was 3.6 nM and the EC50 [3] was 3.6 nM. It also gave an EC50 [4] of 12 nM, an EC50 [5] of 4.3 nM and an EC50 [6] of 4.3 nM. It also gave an EC50 [7] of 3.7 nM, an EC50 [8] of 2.5 nM and an EC50 [9] of 2.4 nM. It also gave an EC50 [10] of 2.7 nM.

With `C[C@@H]1[C@@H]2CN(C(=O)[C@H](C(C)(C)C)NC(=O)O[C@@H]3C[C@@H]4C[C@@H]4[C@H]3CCCCC(F)(F)c3nc4ccccc4nc3O2)[C@@H]1C(=O)N[C@]1(C(=O)NS(=O)(=O)C2(C)CC2)C[C@H]1C(F)F` [Example 82, (1aS,2aR,6S,9S,10S,11R,23aR,23bS)-6-tert-butyl-N-[(1R,2R)-2-(difluoromethyl)-1-{[(1-methylcyclopropyl)sulfonyl]carbamoyl}cyclopropyl]-19,19-difluoro-10-methy-4,7-dioxo-1a,2,2a,4,5,6,7,10,11,19,20,21,22,23,23a,23b-hexadecahydro-1H,9H-8,11-methanocyclopropa[4′,5′]cyclopenta[1′,2′:18,19][1,10,3,6]dioxadiazacyclononadecino[11,12-b]quinoxaline-9-carboxamide] the EC50 [1] was 8.5 nM, the EC50 [2] was 9.3 nM and the EC50 [3] was 4.7 nM. The EC50 [4] was 25 nM, the EC50 [5] was 10 nM and the EC50 [6] was 16 nM. For the same compound, the EC50 [7] was 7.8 nM, the EC50 [8] was 6.2 nM and the EC50 [9] was 4.1 nM. For the same compound, the EC50 [10] was 5.7 nM.

With `CC[C@@H]1[C@@H]2CN(C(=O)[C@H](C(C)(C)C)NC(=O)O[C@@H]3C[C@H]3CC/C=C/C(F)(F)c3nc4ccc(C#N)cc4nc3O2)[C@@H]1C(=O)N[C@]1(C(=O)NS(=O)(=O)C2(C)CC2)C[C@H]1C(F)F` [Example 84, (1aR,5S,8S,9S,10R,19E,22aR)-5-tert-butyl-14-cyano-N-[(1R,2R)-2-(difluoromethyl)-1-{[(1-methylcyclopropyl)sulfonyl]carbamoyl}cyclopropyl]-9-ethyl-18,18-difluoro-3,6-dioxo-1,1a,3,4,5,6,9,10,18,21,22,22a-dodecahydro-8H-7,10-methanocyclopropa[18,19][1,10,3,6]dioxadiazacyclononadecino[11,12-b]quinoxaline-8-carboxamide] the EC50 [1] was 5.9 nM, the EC50 [2] was 5.7 nM and the EC50 [3] was 7.2 nM. For the same compound, the EC50 [4] was 27 nM, the EC50 [5] was 6.4 nM and the EC50 [6] was 11 nM. The EC50 [7] was 5.4 nM, the EC50 [8] was 4 nM and the EC50 [9] was 2.5 nM. It also gave an EC50 [10] of 5.2 nM.

Work on `CC[C@@H]1[C@@H]2CN(C(=O)[C@H](C(C)(C)C)NC(=O)O[C@@H]3C[C@H]3CCCCC(F)(F)c3nc4ccc(OC(F)F)cc4nc3O2)[C@@H]1C(=O)N[C@]1(C(=O)NS(=O)(=O)C2(C)CC2)C[C@H]1C(F)F` [Example 85, (1aR,5S,8S,9S,10R,22aR)-5-tert-butyl-14-(difluoromethoxy)-N-[(1R,2R)-2-(difluoromethyl)-1-{[(1-methylcyclopropyl)sulfonyl]carbamoyl}cyclopropyl]-9-ethyl-18,18-difluoro-3,6-dioxo-1,1a,3,4,5,6,9,10,18,19,20,21,22,22a-tetradecahydro-8H-7,10-methanocyclopropa[18,19][1,10,3,6]dioxadiazacyclononadecino[11,12-b]quinoxaline-8-carboxamide] yielded an EC50 [1] of 16 nM, an EC50 [2] of 17 nM and an EC50 [3] of 7.7 nM. It also gave an EC50 [4] of 304 nM, an EC50 [5] of 9.2 nM and an EC50 [6] of 101 nM. The EC50 [7] was 12 nM, the EC50 [8] was 22 nM and the EC50 [9] was 7 nM. For the same compound, the EC50 [10] was 57 nM.

`CC[C@@H]1[C@@H]2CN(C(=O)[C@H](C(C)(C)C)NC(=O)O[C@@H]3C[C@H]3CCCCC(F)(F)c3nc4ccc(C#N)cc4nc3O2)[C@@H]1C(=O)N[C@]1(C(=O)NS(=O)(=O)C2(C)CC2)C[C@H]1C(F)F` [Example 87, (1aR,5S,8S,9S,10R,22aR)-5-tert-butyl-14-cyano-N-[(1R,2R)-2-(difluoromethyl)-1-{[(1-methylcyclopropyl)sulfonyl]carbamoyl}cyclopropyl]-9-ethyl-18,18-difluoro-3,6-dioxo-1,1a,3,4,5,6,9,10,18,19,20,21,22,22a-tetradecahydro-8H-7,10-methanocyclopropa[18,19][1,10,3,6]dioxadiazacyclononadecino[11,12-b]quinoxaline-8-carboxamide] showed an EC50 [1] of 4.8 nM, an EC50 [2] of 3.9 nM and an EC50 [3] of 3.3 nM. The EC50 [4] was 14 nM, the EC50 [5] was 3.8 nM and the EC50 [6] was 7.7 nM. The EC50 [7] was 2.9 nM, the EC50 [8] was 2.8 nM and the EC50 [9] was 1.3 nM. The EC50 [10] was 4 nM.
